Results on 1 cell line are retold here after the supplement of paper PMC10307832.

Common to all, as to experiment: relative viability (nuclei count vs DMSO), 5 days (fraction); higher = more cells survive
Compound in the test “Adavosertib + Trametinib”: C=CCn1c(=O)c2cnc(Nc3ccc(N4CCN(C)CC4)cc3)nc2n1-c1cccc(C(C)(C)O)n1 [Adavosertib] + CC(=O)Nc1cccc(-n2c(=O)n(C3CC3)c(=O)c3c(Nc4ccc(I)cc4F)n(C)c(=O)c(C)c32)c1 [Trametinib] (partner 0.02 µM)
Summed up:
(§1)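 Lung cancer cell lines in 1536-well plates got either a single drug or a fixed anchor-drug dose together with five library-drug doses (not always all listed) in √10 steps, by pin tool, on the day after seeding. Nuclei were counted after 5 days, and relative viability is the treated-to-vehicle ratio of nuclei counts. Values are medians of duplicate plates.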

Compound in the test “Nelarabine + Trametinib”: COc1nc(N)nc2c1ncn2[C@@H]1O[C@H](CO)[C@@H](O)[C@@H]1O [Nelarabine] + CC(=O)Nc1cccc(-n2c(=O)n(C3CC3)c(=O)c3c(Nc4ccc(I)cc4F)n(C)c(=O)c(C)c32)c1 [Trametinib] (partner 0.02 µM)
Summed up: as §1

Compound in the test “Nelarabine + Navitoclax”: COc1nc(N)nc2c1ncn2[C@@H]1O[C@H](CO)[C@@H](O)[C@@H]1O [Nelarabine] + CC1(C)CCC(c2ccc(Cl)cc2)=C(CN2CCN(c3ccc(C(=O)NS(=O)(=O)c4ccc(N[C@H](CCN5CCOCC5)CSc5ccccc5)c(S(=O)(=O)C(F)(F)F)c4)cc3)CC2)C1 [Navitoclax] (partner 0.5 µM)
Summed up: as §1

Compound in the test “Nelarabine + Phenformin”: COc1nc(N)nc2c1ncn2[C@@H]1O[C@H](CO)[C@@H](O)[C@@H]1O [Nelarabine] + N=C(N)NC(=N)NCCc1ccccc1 [Phenformin] (partner 250 µM)
Summed up:
as §1

For EMC-BAC-2, the relative viability with Adavosertib + Trametinib (first compound 0.03162 µM) worked out at 0.938; in the test with Adavosertib + Trametinib (first compound 0.1 µM) it was 0.894; with Adavosertib + Trametinib (first compound 0.3162 µM) it was 0.927; with Nelarabine + Trametinib (first compound 0.01 µM) it was 0.895; with Nelarabine + Trametinib (first compound 0.03162 µM), 1.02; in the test with Nelarabine + Trametinib (first compound 0.1 µM) it was 0.819. Also, the relative viability amounted to 0.821 in the test with Nelarabine + Trametinib (first compound 0.3162 µM); 0.916 in the test with Nelarabine + Trametinib (first compound 1 µM); 1.45 with Nelarabine + Navitoclax (first compound 0.01 µM); 1.11 in the test with Nelarabine + Navitoclax (first compound 0.03162 µM); 1.25 with Nelarabine + Navitoclax (first compound 0.1 µM); 1.38 with Nelarabine + Navitoclax (first compound 0.3162 µM). Also, the relative viability was 1.16 with Nelarabine + Navitoclax (first compound 1 µM); 0.587 with Nelarabine + Phenformin (first compound 0.01 µM); 0.463 in the test with Nelarabine + Phenformin (first compound 0.03162 µM); 0.493 with Nelarabine + Phenformin (first compound 0.1 µM); 0.517 with Nelarabine + Phenformin (first compound 0.3162 µM); 0.539 with Nelarabine + Phenformin (first compound 1 µM).
